≈ marks a conversion by molar mass, not a printed value. Like-named read-outs stand apart in the source and are kept apart here.
Tests used:
[1] = partition coefficient between organic fluid and water, from solubility ratio
Text: [formula] where m is the rate at which drug is transported across the membrane (g/sec), Vp is the volume of the permeate solution (cm^3), [D]p is the concentration of drug in the permeate solution (g/cm^3), t is the time (sec), am is the membrane area (cm^2), Pov is the overall permeability coefficient (cm/sec), [Ddissolved]f is the concentration of dissolved drug in the feed solution (g/cm^3), and kp,mem is the partition coefficient of drug between the organic fluid and water, which is defined as the ratio of (1) the concentration of drug in the organic fluid, and (2) the concentration of dissolved neutral drug in the aqueous feed solution when the two solutions are at equilibrium. The partition coefficient can be estimated from the ratio of (1) the solubility of drug in the organic fluid and (2) the solubility of the dissolved drug in the aqueous feed solution.
The organic fluid consisted of 4 mL of decanol, which was added to the permeate reservoir. […] An overhead stirrer was used to stir the decanol permeate solution at 100 rpm.
The organic fluid used in these tests consisted of 5 mL of 20 wt % decanol in decane.

[2] = not told, 120 μg/mL
[3] = membrane-permeation test with un-treated (hydrophobic) microporous membrane; type: in vitro ADME
Procedure: A series of tests were performed using the procedure outlined in Example 1 except that an un-treated ACCUREL® PP 1E microporous polypropylene membrane was utilized in the test apparatus. The contact angle of a drop of water on the feed side of the membrane was greater than about 100°, and thus was hydrophobic. The flux of Drug 1 across the membrane was determined using the procedures outlined in Example 1 as a function of the amount of Drug 1 added to the feed solution. […] Without wishing to be bound by any particular theory or mechanism of action, it is believed that without the hydrophilic surface, particles of crystalline drug contacted the permeate solution (decanol) directly and dissolved into the decanol permeate solution, resulting in high maximum fluxes of Drug 1 across the membrane.

[4] = membrane-permeation test, plasma-treated (hydrophilic feed side) membrane, PBS feed, decanol permeate; type: in vitro ADME
Procedure: A cold plasma was used to treat the feed side of a microporous membrane as follows. An Accurel® PP 1E microporous polypropylene membrane was obtained from Membrana GmbH (Wuppertal, Germany). This membrane has a nominal pore size of 0.1 μm, a thickness of about 92 μm, and a porosity of about 70%. The contact angle of a drop of water placed on the untreated membrane is greater than about 110°.
The membrane was rinsed five times in fresh isopropyl alcohol at room temperature for about 24 hours, for a total rinsing time of about 120 hours, and then allowed to air dry. Prior to treatment, the membrane was rinsed in methanol in a sonicating bath for 1 minute at ambient temperature, and then allowed to air dry at ambient temperature.
A sample of the membrane measuring about 10 cm by about 23 cm was placed into a glass-walled plasma chamber having an inside diameter of about 3 inches (7.5 cm). The membrane was positioned such that the permeate side of the membrane was against the glass wall of the plasma chamber. The atmosphere of the plasma chamber was saturated with water vapor at a pressure of 550 mtorr by placing a shallow tray of water into the chamber prior to reducing the pressure using a vacuum pump.
After achieving a constant pressure in the plasma chamber (about 3 to 5 minutes), the plasma was generated using radio frequency (RF) power inductively coupled into the chamber via annular electrodes. The power on the RF generator was set at 50 watts. The membrane was exposed to the plasma for 45 seconds, after which the power was turned off and the pressure in the chamber increased to ambient using air. The contact angle of a drop of water placed on the surface of the plasma-treated membrane was about 40°. The contact angle of a drop of water placed on the permeate side of the same membrane was greater than about 110°.
The crystalline form of the cholesteryl ester transfer protein (CETP) inhibitor [2R,4S]4-[(3,5-bis-trifluoromethyl-benzyl)-methoxycarbonyl-amino]-2-ethyl-6-trifluoromethyl-3,4-dihydro-2H-quinoline-1-carboxylic acid ethyl ester, also known as torcetrapib (“Drug 1”) was evaluated in a membrane-permeation test. An apparatus similar to the one shown schematically in FIG. 3 was assembled as follows. A permeate reservoir was formed by gluing a sample of the plasma-treated membrane described above to a glass tube having an inside diameter of about 1 inch (2.54 cm) using an epoxy-based glue (LOCTITE® E-30CL HYSOL® from Henkel Loctite Corp, Rocky Hill, Conn.). The feed-side of the membrane was oriented so that it was on the outside of the permeate reservoir, while the permeate-side of the membrane was oriented so that it was on the inside of the reservoir. The glue was allowed to set by placing the permeate reservoir in an oven at 50° C. and 25% relative humidity (RH) overnight. The contact angle of a drop of water on the feed side of the membrane after assembling the permeate reservoir was about 50°. The effective membrane area of the permeate reservoir was about 4.9 cm^2.
[…] […] This is well in excess of the solubility of Drug 1 in water, estimated to be less than about 0.04 μg/mL. The feed solution was mixed on a vortex mixer for about 1 minute.
The apparatus was assembled by first filling the permeate reservoir with the permeate solution. The permeate reservoir, with attached membrane, was placed within a glass feed reservoir about 3.3 cm in diameter such that the membrane was held about 1 cm above the bottom of the feed reservoir, and the membrane was wetted by the permeate solution. The feed reservoir was equipped with a magnetic stir bar and the reservoir was placed on a stir plate and adjusted to a stir rate of 600 rpm. Care was taken to ensure no air bubbles were trapped beneath the feed side of the membrane. Time 0 was taken as the time the permeate reservoir was placed within the feed solution reservoir such that the feed solution contacted the membrane surface. […]

[5] = in vivo oral dosing of OPC, plasma concentration; details: dog, beagle dogs, Fed
Procedure: The compositions tested in vitro in Examples 3-6 were tested in vivo to determine whether the in vitro results correlate with the in vivo results. For Examples 7 and 8, the composition was the same as that used in Example 3 (25% Drug 1:HPMCAS-M dispersion) dosed in the fasted state, and fed state, respectively. For Examples 9 and 10, the composition was the same as that used in Example 4 (crystalline Drug 1) dosed in the fasted state and fed state, respectively.
The compositions were orally dosed to beagle dogs in the form of an oral powder for constitution (OPC) by suspending the composition in about 15 mL of a solution of 3 wt % polyethylene glycol (PEG) with a molecular weight of 3,350 daltons, 0.5 wt % methylcellulose, and 0.15 wt % Polysorbate 80 in sterile water. In each case a sufficient amount of the pharmaceutical composition was used such that the OPC contained 90 mgA of Drug 1. The thus-formed OPCs were then dosed to dogs in either the fed state or fasted state (fasted overnight). Blood was collected from the jugular vein of the dogs before dosing and at various time points after dosing. To 100 μL of each plasma sample, 5 mL of methyl-tert-butyl ether (MTBE) and 1 mL of 500 mM sodium carbonate buffer (pH 9) were added; the sample was vortexed for 1 minute and then centrifuged for 5 minutes. The aqueous portion of the sample was frozen in a dry-ice/acetone bath, and the MTBE layer was decanted and evaporated in a vortex evaporator. Dried samples were reconstituted in 100 μL of mobile phase (33% acetonitrile and 67% of 0.1% formic acid in water). Analysis was carried out by HPLC.
The results of these tests are shown in Table 7, where Cmax,24 is the maximum concentration in the blood plasma during the first 24 hours, Tmax is the time to achieve the maximum concentration in the blood plasma and AUC0-24 is the concentration in the blood plasma area under the curve in the first 24 hours.

[6] = organic solvent or mixture, solubility in organic fluid
[7] = water, aqueous solubility (solubility in water)

## CC[C@@H]1C[C@H](N(Cc2cc(C(F)(F)F)cc(C(F)(F)F)c2)C(C)=O)c2cc(C(F)(F)F)ccc2N1C(=O)OC(C)C [Drug 3, [2R,4S]4-[acetyl-(3,5-bis-trifluoromethyl-benzyl)-amino]-2-ethyl-6-trifluoromethyl-3,4-dihydro-2H-quinoline-1-carboxylic acid isopropyl ester]
[1]; 20 wt % decanol in decane / water
  partition coefficient between the organic fluid and water: greater than 250,000
[2]
  Maximum Flux of Drug 3: 0.06 μg/cm^2-min
physchem; [6]
  solubility: > 25 mg/mL
physchem; [7]
  solubility: < 0.0001 mg/mL

## O=C(N[C@@H](Cc1ccccc1)[C@@H](O)C(=O)N1C[C@@H](O)[C@@H](O)C1)c1cc2cc(Cl)ccc2[nH]1 [Drug 2, 5-chloro-1H-indole-2-carboxylic acid [(1S)-benzyl-(2R)-hydroxy-3-((3R,4S)-dihydroxy-pyrrolidin-1-yl-)-3-oxypropyl]amide]
[1]
  partition coefficient between the organic fluid and water: about 12

## CCOC(=O)N1c2ccc(C(F)(F)F)cc2[C@@H](N(Cc2cc(C(F)(F)F)cc(C(F)(F)F)c2)C(=O)OC)C[C@H]1CC [Drug 1, [2R,4S]4-[(3,5-bis-trifluoromethyl-benzyl)-methoxycarbonyl-amino]-2-ethyl-6-trifluoromethyl-3,4-dihydro-2H-quinoline-1-carboxylic acid ethyl ester]
[1]
  partition coefficient between the organic fluid and water: greater than 650,000
  partition coefficient of the drug between the organic fluid and PBS: greater than 650,000
[2]
  Maximum Flux of Drug 1: 0.012 μg/cm^2-min
  maximum flux in solution modeling the fed state relative to MFD solution: 7,6 fold
[3]; 25 μg/mL Drug 1 added to the feed
  Maximum Flux of Drug: 0.75 μg/cm^2-min
[3]; 50 μg/mL Drug 1 added to the feed
  Maximum Flux of Drug: 1.5 μg/cm^2-min
[3]; 80 μg/mL Drug 1 added to the feed
  Maximum Flux of Drug: 4.0 μg/cm^2-min
[3]; 200 μg/mL Drug 1 added to the feed
  Maximum Flux of Drug: 7.1 μg/cm^2-min
[3]; 400 μg/mL Drug 1 added to the feed
  Maximum Flux of Drug: 12.6 μg/cm^2-min
[3]; 700 μg/mL Drug 1 added to the feed
  Maximum Flux of Drug: 26 μg/cm^2-min
[3]; 1000 μg/mL Drug 1 added to the feed
  Maximum Flux of Drug: 32 μg/cm^2-min
[4]; 89 μg/mL added to PBS feed, 80 to 160 minutes
  Maximum Flux of Drug 1: 0.025 μg/cm^2-min
[4]; 1000 μg/mL added to PBS feed, 90 to 210 minutes
  Maximum Flux of Drug 1: 0.028 μg/cm^2-min
[4]; 90 to 210 minutes, 1000 μg/mL added to PBS feed
  slope of permeate concentration versus time (least-squares fit): 0.035 μg/mL-min
[4]; time 0 min, 89 μg/mL added to PBS feed
  Drug 1 Concentration in Permeate: 0.0 µg/mL
[4]; time 0 min, 1000 μg/mL added to PBS feed, 37° C., average of duplicate tests
  Drug 1 Concentration in Permeate: 0.0 µg/mL
[4]; time 20 min, 89 μg/mL added to PBS feed
  Drug 1 Concentration in Permeate: 0.0 µg/mL
[4]; time 30 min, 1000 μg/mL added to PBS feed
  Drug 1 Concentration in Permeate: 0.0 µg/mL
[4]; time 40 min, 89 μg/mL added to PBS feed
  Drug 1 Concentration in Permeate: 0.0 µg/mL
[4]; time 60 min, 89 μg/mL added to PBS feed
  Drug 1 Concentration in Permeate: 0.0 µg/mL
[4]; time 60 min, 1000 μg/mL added to PBS feed
  Drug 1 Concentration in Permeate: 0.0 µg/mL
[4]; time 80 min, 89 μg/mL added to PBS feed
  Drug 1 Concentration in Permeate: 1.7 µg/mL
[4]; time 90 min, 1000 μg/mL added to PBS feed
  Drug 1 Concentration in Permeate: 3.3 µg/mL
[4]; time 100 min, 89 μg/mL added to PBS feed
  Drug 1 Concentration in Permeate: 2.2 µg/mL
[4]; time 120 min, 89 μg/mL added to PBS feed
  Drug 1 Concentration in Permeate: 3.0 µg/mL
[4]; time 120 min, 1000 μg/mL added to PBS feed
  Drug 1 Concentration in Permeate: 4.5 µg/mL
[4]; time 140 min, 89 μg/mL added to PBS feed
  Drug 1 Concentration in Permeate: 3.7 µg/mL
[4]; time 150 min, 1000 μg/mL added to PBS feed
  Drug 1 Concentration in Permeate: 6.9 µg/mL
[4]; time 160 min, 89 μg/mL added to PBS feed
  Drug 1 Concentration in Permeate: 4.0 µg/mL
[4]; time 210 min, 1000 μg/mL added to PBS feed
  Drug 1 Concentration in Permeate: 7.4 µg/mL
[4]; time 240 min, 1000 μg/mL added to PBS feed
  Drug 1 Concentration in Permeate: 9.2 µg/mL
[4]; time 270 min, 1000 μg/mL added to PBS feed
  Drug 1 Concentration in Permeate: 11.8 µg/mL
[4]; time 300 min, 1000 μg/mL added to PBS feed
  Drug 1 Concentration in Permeate: 12.2 µg/mL
[4]; time 330 min, 1000 μg/mL added to PBS feed
  Drug 1 Concentration in Permeate: 14.9 µg/mL
[4]; time 360 min, 1000 μg/mL added to PBS feed
  Drug 1 Concentration in Permeate: 13.9 µg/mL
[4]; time 390 min, 1000 μg/mL added to PBS feed
  Drug 1 Concentration in Permeate: 16.9 µg/mL
[4]; time 420 min, 1000 μg/mL added to PBS feed
  Drug 1 Concentration in Permeate: 21.4 µg/mL
[4]; time 450 min, 1000 μg/mL added to PBS feed
  Drug 1 Concentration in Permeate: 21.5 µg/mL
physchem; aqueous buffer, aqueous solubility in PBS
  solubility: < 4e-05 mg/mL
physchem; organic solvent or mixture, solubility in decanol
  solubility: > 25 mg/mL
physchem; [6]
  solubility: ~25 mg/mL (≈ 41.6 mM)
physchem; [7]
  solubility: < 4e-05 mg/mL
[5]; oral OPC 90 mgA Drug 1
  Tmax: 2.3 ± 1.9 h
[5]; oral OPC 90 mgA Drug 1, read-out: AUC0-24
  AUC(0-t): 928 ± 642 µg·h/mL
[5]; oral OPC 90 mgA Drug 1, read-out: Cmax,24
  Cmax: 191 ± 55 µg/mL

Reference: patent publication US7611630B2, “Method and device for evaluation of pharmaceutical compositions” (Bend Research, Inc., priority 2004, dated 2009)
